# According to patent US4873240A, “Method for administering ethanolamine derivatives to livestock” (Beecham Group p.l.c., priority 1985, dated 1989):
# Tests used:
# [1] = Weight gain, food intake and body composition of genetically obese (ob/ob) mice dosed for 28 days; assay type: in vivo, female C57Bl/6 genetically obese (ob/ob) mice
# Experimental: (§1) Remale C57Bl/6 genetically obese (ob/ob) or normal lean mice were fed on a powdered breeders diet and given the compounds either once daily by oral gavage, or by admixture with the diet for 28 days. Fifty parts per million (ppm) in the diet is equivalent to a dose level of about eight to ten )obese mie) or twelve to thirteen (normal mice) milligrams per kilogram body weight per dya. Body lipid content and lean body mass were determined gravimetrically. There were seven or eight mice in each treatment group and results are expressed as a percentage of values for an untreated group of similar size.
# [2] = Weight gain and food conversion efficiency of broiler chicken, 30-56 days; assay type: in vivo, Marshall sexed broiler chicken; details: 3 ppm in feed
# Description: Marshall sexed broiler chicken, 30 days old, were fed on a basal feed, which was designed as a practical broiler and finisher feed. Additive (see below) was substituted for maize in tis diet. The supplemented diets were fed until the birds were 56 days old.
# [3] = Pup weight and rectal temperature after administration to pregnant rats; assay type: in vivo, Sprague-Dawley rats; details: days 2-20 of gestation, mean ± S.E.M.
# Experimental: Female Sprague-Dawley rates were mated, fed on powdered rodent diet and given compound P1 as a dietary admixture (150 ppm) from days 2-20 of gestation. Thereafter no further compound was given. Parturition occurred on day 22. The pups were weight 24 hours after birth. 48 hours after birth 7 pups were removed at random from 3 control and 3 treated litters, placed 29° C. and rectal temperature was monitored. Results are expressed as means of the number of values shown in parentheses±S.E.M.
# [4] = Weight gain, food intake and body composition of normal lean mice dosed for 28 days; assay type: in vivo, female C57Bl/6 normal lean mice
# Experimental: as §1
smiles,measurement,setting,value
"COC(=O)c1ccc(CC(C)NCC(O)c2ccccc2)cc1 (centres unmarked) [Preparation P1, N-[2-(4-carbomethoxyphenyl)-1-methylethyl]-2-hydroxy-2-phenylethanamine]",Amt. of Lipid,[1]; 50 ppm in diet,103 % of control values
same,Food Intake,[1]; 50 ppm in diet,119 % of control values
same,Gain/Intake,[1]; 50 ppm in diet,168 % of control values
same,Lean Body mass,[1]; 50 ppm in diet,111 % of control values
same,Weight Gain,[1]; 50 ppm in diet,200 % of control values
same,Weight gain 30-56 days,"[2]; female, control 1309",1326 g
same,Food conversion efficiency 30-56 days,"[2]; female, control .329",.333
same,Weight gain 30-56 days,"[2]; male, control 1644",1784 g
same,Food conversion efficiency 30-56 days,"[2]; male, control .367",.385
same,"Weight, All pups","[3]; 150 ppm in diet of dams, 24 hours after birth, n=52, control 5.3 ± 0.1",5.9 ± 0.1 g
same,"Weight, Pups monitored for body temperature","[3]; 150 ppm in diet of dams, n=7, control 5.0 ± 0.1",6.6 ± 0.4 g
same,Drop in rectal temperature after 10 mins @ 29° C.,"[3]; pups 48 hours after birth, dams 150 ppm in diet, n=7, control 2.76 ± 0.16",1.98 ± 0.06
same,Rectal temperature after 10 mins @ 29° C.,"[3]; pups 48 hours after birth, dams 150 ppm in diet, n=7, control 29.4 ± 0.4",31.2 ± 0.5
"COC(=O)c1ccc(CC(C)NCC(O)c2ccc(O)c(CO)c2)cc1 [Preparation P2, N-[2-(4-carbomethoxyphenyl)-L-methylethyl]-2-hydroxy-2-(4-hydroxy-3-hydroxymethylphenyl) ethanamine]",Amt. of Lipid,[1]; 10 mg/kg po once daily,77 % of control values
same,Food Intake,[1]; 10 mg/kg po once daily,111 % of control values
same,Gain/Intake,[1]; 10 mg/kg po once daily,70 % of control values
same,Lean Body mass,[1]; 10 mg/kg po once daily,113 % of control values
same,Weight Gain,[1]; 10 mg/kg po once daily,78 % of control values
same,Amt. of Lipid,[1]; 36 ppm in diet,101 % of control values
same,Food Intake,[1]; 36 ppm in diet,112 % of control values
same,Gain/Intake,[1]; 36 ppm in diet,99 % of control values
same,Lean Body mass,[1]; 36 ppm in diet,112 % of control values
same,Weight Gain,[1]; 36 ppm in diet,111 % of control values
same,Amt. of Lipid,[4]; 75 ppm in diet,78 % of control values
same,Food Intake,[4]; 75 ppm in diet,107 % of control values
same,Gain/Intake,[4]; 75 ppm in diet,120 % of control values
same,Lean Body mass,[4]; 75 ppm in diet,107 % of control values
same,Weight Gain,[4]; 75 ppm in diet,128 % of control values
COC(=O)c1ccc(CC(C)NCC(O)c2ccc(O)c(CO)c2)cc1 (centres unmarked) [Preparation P3],Amt. of Lipid,[4]; 20 mg/kg po once daily,69 % of control values
same,Gain/Intake,[4]; 20 mg/kg po once daily,90 % of control values
same,Lean Body mass,[4]; 20 mg/kg po once daily,113 % of control values
same,Weight Gain,[4]; 20 mg/kg po once daily,171 % of control values
"COC(=O)COc1ccc(CC(C)NCC(O)c2cccc(Cl)c2)cc1 (centres unmarked) [Preparation P4, N-[2-(4-carbomethoxymethoxyphenyl)-1-methylethl]-2-hydroxy-2-(3-chlorophenyl)ethanamine]",Amt. of Lipid,[1]; 0.46 ppm in diet,105 % of control values
same,Food Intake,[1]; 0.46 ppm in diet,116 % of control values
same,Gain/Intake,[1]; 0.46 ppm in diet,124 % of control values
same,Lean Body mass,[1]; 0.46 ppm in diet,107 % of control values
same,Weight Gain,[1]; 0.46 ppm in diet,143 % of control values
"COC(=O)COc1ccc(CC(C)NCC(O)c2cc(Cl)c(N)c(Cl)c2)cc1 (centres unmarked) [Preparation P5, N-[2-(4-carbomethoxymethoxyphenyl)-1-methylethyl]-2-hydroxy-2-(4-amino-3,5-dichlorophenyl)ethanamine]",Food Intake,[4]; 50 ppm in diet,108 % of control values
same,Gain/Intake,[4]; 50 ppm in diet,116 % of control values
same,Lean Body mass,[4]; 50 ppm in diet,108 % of control values
same,Weight Gain,[4]; 50 ppm in diet,125 % of control values
